Patent US9708305B2, “Substituted 1,2,3,4-tetrahydroisoquinoline derivatives for the treatment of hormone-dependent diseases” (UNIVERSITÉ LAVAL, priority 2013, dated 2017)

Legend:
Assay type in all cases: cell-based
T-47D cells = assay: T-47D cell proliferation (estrogenicity / cytotoxicity), MTS
[1] = tested on: osteoblast-like Saos-2 cells; assay: Saos-2 cell proliferation, MTS; settings: in percentage of control (100%; 0.1 nM of estradiol)
Excerpt: First, we wanted to evaluate their effect on cell proliferation. […] This is outlined in FIG. 8A. […] One of the main roles of osteoblasts in bone tissue is to construct a calcified extracellular matrix.^15 As such, bone formation is not principally due to osteoblasts proliferation but rather osteoblasts maturation into mature osteocytes. […] This is outlined in FIG. 8B.
CellTitter 96® Aqueous One Solution Cell Proliferation Assay was used as an indirect colorimetric measurement of cell proliferation according to the manufacturer's instructions. Briefly, after the treatments, 20 μL of MTS solution was added to each well (100 μL) of the plates and incubated at 37° C. for 2 h (Saos-2) or 4 h (T-47D). The absorbance at 490 nm was then measured with a Thermo max microplate reader (Molecular Devices, Sunnyvale, Calif.). The control (culture media+DMSO) is set to 100% of cell proliferation.
Saos-2 cells were suspended in phenol-red free McCoy's 5A medium supplemented with 10% charcoal-stripped FBS, penicillin (100 IU/mL) and streptomycin (100 μg/mL). The cells were seeded in 96-well plates at a density of 3 000 cells/well and allowed to attach. After 24 h, the inhibitors and the reference compounds diluted in fresh culture media were added to the wells and replaced every 2 days for 7 days of treatment.

Saos-2 (ER+) cells = assay: Proliferative activity on Saos-2 (ER+) cells, phenol library; settings: 1 μM (stated for reference compounds); 7 days; control 100%
Method: Estrogens are known to have a beneficial effect on bones. […] The phenol derivatives 3′-EO-09 to 3′-EO-11 and 3′-EO-14 to 3′-EO-17 were tested on the osteoblast-like cell line Saos-2 to further evaluate their SERM capacity (FIG. 13A).
The osteoblast-like Saos-2 cells were maintained in culture flasks (175 cm^2 growth area, BD Falcon) at 37° C. in a 5% CO2 humidified atmosphere and grown in McCoy's 5A medium supplemented with 10% fetal bovine serum (FBS), penicillin (100 IU/mL) and streptomycin (100 μg/mL). Penicillin/streptomycin mix, L-Glutamine, normal and charcoal-stripped FBS were purchased from Wisent, Inc. (St-Bruno, QC, Canada), phenol-red free McCoy's 5A was purchased from PromoCell (Heidelberg, Germany). Chemicals tested were first dissolved in DMSO and subsequent dilutions were done in the cell culture medium. The final concentration of DMSO in the culture medium was 0.1% or less. For the proliferation assay, the […] FBS in the culture medium was replaced with 10% charcoal-stripped FBS. The cells were seeded in 96-well plates at a density of 10 000 cells/well and allowed to attach 24 h. After 24 h, the phenolic compounds diluted in culture medium were added to the wells and replaced every 2 days for 7 days of treatment. As reported above, MTS was used as an indirect colorimetric measurement of cell proliferation according to the manufacturer's instructions, except the plate were incubated 2 h instead of 4 h.

[2] = tested on: alkaline phosphatase activity in Saos-2 cells; assay: Alkaline phosphatase assay (Saos-2 cells), phenol library; settings: 1 nM; control (no treatment) fixed at 100%
Method: We also investigated the effect of selected phenol derivatives on alkaline phosphatase activity in Saos-2 cells (FIG. 13B).
Saos-2 cells were used similarly as reported in the cell proliferation assay. The cells were seeded at a density of 2 000 cells/well and treated for 3 days with each compound to be tested. The alkaline phosphatase (ALP) activity was measured using the Sensolyte® pNPP Alkaline Phosphatase Assay Kit *Colorimetric* (AnaSpec, Freemont, Calif.) following the manufacturer's protocol. Briefly, after three days of treatment, the cells were washed twice with washing buffer (provided with the kit) and lysed with 0.2% Triton X-100. The cell lysates were centrifuged and the supernatants were used to determine ALP activity. The supernatants were deposed in a 96-well plate and incubated for 30 minutes with a p-nitrophenyl phosphate solution (provided with the kit). The absorbance at 405 nm was measured with a Thermo max microplate reader (Molecular Devices, Sunnyvale, Calif.). The control (culture media+DMSO) is set to 100% of alkaline phosphatase activity.

## C[C@]12CC[C@@H]3c4ccc(O)cc4CC[C@H]3[C@@H]1CC[C@@H]2O [E2, 17β-estradiol, reference compound]
T-47D cells; 0.1 nM, control 100%, 7 days
  T-47D cell proliferation: approximately 160%
T-47D cells; 1 μM, in % of control (100%; 0.1 nM of estradiol)
  Breast cancer cells T-47D (ER+) Agonist activity (%): 100%
[1]; 0.1 μM
  Bone cells Saos-2 (ER+) SERM effect Proliferative activity (%): 100%
[1]; 1 μM
  Bone cells Saos-2 (ER+) SERM effect Proliferative activity (%): 100%
Saos-2 (ER+) cells
  proliferation of Saos-2 cells: 144%
[2]
  ALP activity in Saos-2 cells: 148%
